ChEMBL document CHEMBL2434912, “Microwave accelerated synthesis of isoxazole hydrazide inhibitors of the system xc- transporter: Initial homology model” (Bioorg Med Chem Lett, 2013)

Target: T1, Cystine/glutamate transporter (Homo sapiens) (UniProt Q9UPY5)
T1 sequence (whole entry): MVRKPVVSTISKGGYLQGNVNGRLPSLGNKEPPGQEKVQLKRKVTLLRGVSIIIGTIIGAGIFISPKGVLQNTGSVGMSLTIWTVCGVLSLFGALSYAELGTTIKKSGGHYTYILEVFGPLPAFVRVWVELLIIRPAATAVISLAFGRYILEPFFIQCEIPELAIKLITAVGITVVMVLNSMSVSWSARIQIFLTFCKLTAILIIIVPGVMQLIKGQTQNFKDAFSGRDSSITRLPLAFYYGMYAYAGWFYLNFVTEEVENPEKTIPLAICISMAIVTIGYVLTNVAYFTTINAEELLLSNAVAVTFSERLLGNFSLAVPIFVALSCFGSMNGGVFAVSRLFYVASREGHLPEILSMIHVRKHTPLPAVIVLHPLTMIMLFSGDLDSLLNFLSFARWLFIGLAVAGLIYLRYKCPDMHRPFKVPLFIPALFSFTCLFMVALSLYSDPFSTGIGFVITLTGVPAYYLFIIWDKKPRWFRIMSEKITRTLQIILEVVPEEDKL
Assay: Inhibition of system xc-transporter-mediated [3H]-L-glutamate uptake in human SNB19 cells at 500 uM after 5 mins by liquid scintillation counting analysis relative to control
Assay type: cell-based
Conditions: SNB-19

SMILES	inhibition [%]
COc1ccc(C(=O)N/N=C(\C)c2c(C(=O)O)noc2C)cc1	68
C/C(=N\NC(=O)c1ccccc1)c1c(C(=O)O)noc1C	83
C/C(=N\NC(=O)c1cccc2ccccc12)c1c(C(=O)O)noc1C	68
C/C(=N\NC(=O)c1ccccc1O)c1c(C(=O)O)noc1C	52

Second part, the compound after the results:

inhibition [%]	SMILES
58	C/C(=N\NC(=O)c1ccc(F)cc1F)c1c(C(=O)O)noc1C
90	C/C(=N\NC(=O)c1cc(C(F)(F)F)cc(C(F)(F)F)c1)c1c(C(=O)O)noc1C
